Source: patent US8513181B2, “Substances and compositions for enhancing DNA repair and methods of use” (Cornell University, priority 2008, dated 2013)

Tests used:
[1] = system: UV-induced CPDs and 6-4PPs in primary MEFs; assay: GGR ELISA assay of CPD and 6-4PP removal in MEFs; format: cell-based, mouse
XPC in HCT116 cells = assay: XPC chromatin binding and ubiquitination after UV irradiation (immunoblot of chromatin-bound extracts); format: cell-based, human; conditions: HCT116, lentiviral shRNA 48 hours
Procedure: XPC ubiquitination was determined in HCT116 cells following UV irradiation. HCT116 cells were infected with lentiviral shCul4a or control FUGW for 48 hours, UV irradiated at 10 J/m^2 and harvested at 0 hr, 0.5 hr, 1 hr, and 2 hr post-UV. The chromatin-bound extracts were prepared and subjected to immunoblotting.

Cul4a−/− MEFs = assay: BrdU incorporation and cell viability of Cul4a−/− MEFs after Cul4b silencing; format: cell-based, mouse; conditions: silencing of Cul4b in Cul4a−/− MEFs
Description: FIG. 3A is a bar graph depicting the percentage of control (f/f-4a) and Cul4a knockout (ko-4a) MEFs infected with a lentivirus encoding GFP and either short hairpin (sh)-4b or scrambled (scm)-4b, at the indicated time point, as determined by FACS. FIG. 3B is a bar graph depicting BrdU incorporation into the MEFs described in FIG. 3A, as determined by counting BrdU^+ cells in microscopic fields.
(§1) Short hairpin (sh) RNAs for gene targeting were as follows: murine sh-Cul4b was 5′-[…]-3′ (SEQ ID NO: 9); murine sh-Pcid2-1 was 5′-[…]-3′ (SEQ ID NO: 10); murine sh-Pcid2-2 was 5′-[…]-3′ (SEQ ID NO: 11); murine sh-p21 was 5′-[…]-3′ (SEQ ID NO: 12); scrambled sh-Cul4b was 5′-[…]-3′ (SEQ ID NO: 13); and human sh-Cul4a was 5′-GAAGCTGGTCATCAAGAAC-3′ (SEQ ID NO: 14). shRNAs were subcloned into the FUGW lentiviral vector and expressed under the U6 promoter (Sui and Shi, Methods Mol. Biol., 309: 205-218 (2005)). Recombinant lentiviruses were generated for infection of MEFs or HCT116 cells.

mouse CUL4B = assay: Western blotting of MEF extracts after lentiviral shRNA infection (knockdown efficiency); format: cell-based; conditions: early passage (P3) primary MEFs, harvested 48 hours post-infection
Description: as §1
(§2) MEFs were isolated from embryonic day (E) 13.5 wild-type or Cul4a knockout embryos. shRNAs for murine Cul4b and Pcid2 as well as scrambled controls were subcloned into the FUGW lentiviral vector and expressed under the U6 promoter as described in Example 1. Recombinant shCul4b and shPcid2 lentiviruses were generated for infection of primary Cu/4a^f/f and Cul4a^−/− MEF cells. shRNA-containing FUGW lentivirus were added onto Cu/4a^f/f and Cul4a^−/− MEFs every 12 hours for 36 hours. The cells were harvested 48 hours post-infection, and Western blotting was performed on MEF extracts using antibodies against CUL4A (C-19, Santa Cruz Biotechnology), CUL-4B, DDB2 (Cell Signaling Technology, Danvers, Mass.), p21 (Santa Cruz Biotechnology), XPC, histone H3, and β-actin (Sigma, St. Louis, Mo.).

[2] = system: primary Cul4a f/f and Cul4a−/− MEF cells; assay: Western blotting of DDB2, p21 and XPC steady-state protein levels in MEFs after lentiviral shRNA; format: cell-based, mouse; conditions: Western blot
Procedure: as §2

HCT116 cells = assay: CPD repair (NER activity) in UV-irradiated HCT116 cells infected with adenovirus; format: cell-based, human; conditions: HCT116, 10 J/m^2 UV-C, 0-24 hr
Procedure: The GGR ELISA assay of CPD and 6-4PP removal was performed as previously described (Chen et al., 2006) in primary Cul4a^−/− (ko-4-a scm-4b), Cu/4b^k/d (f/f-4a sh-4b), and control Cu/4a^f/f (f/f-4a scm-4-b) MEFs (FIG. 7B, ko, knockout; k/d, knockdown; scm, scramble). Briefly, exponentially growing MEF cells were irradiated with 10 J/m^2 UV-C (254 nm) and either harvested immediately (0 hr) or allowed to repair for the duration indicated in FIG. 7B. Genomic DNA was isolated and quantified via liquid scintillation and fluorometric measurements of Hoechst-stained DNA. Denatured genomic DNA was fixed to each well of protamine sulfate-coated 96-well plates and sequentially incubated with monoclonal antibody specific for 6-4PPs (64M-2, 1:5000) or CPDs (1:5000), biotin-F(ab′)2 fragment of anti-mouse IgG (H+L) (1:2000, Zymed) and peroxidase-Streptavidin (1:10,000, Zymed) for 30 min at 37° C. The wells were washed with PBS-Tween and 0.1 M citrate-phosphate buffer and incubated with the substrate solution (0.1 M citrate-phosphate buffer, 0.1 mg/mL tetramethylbenzidine [TMB], 0.03% H2O2) at room temperature for 30 min. […] A450 was determined using a plate reader (Molecular Devices).
HCT116 cells were infected with a control adenovirus or an adenovirus comprising a gene encoding a DN-CUL4 (SEQ ID NO: 18). […] The rate of NER activity was then calculated as the rate of CPD repair as a function of time.

Q: For “sh-p21: murine short hairpin RNA targeting p21, 5′-GAGAACGGTGGAACTTTGACTT-3′ (SEQ ID NO: 12), lentiviral (expressed or natural sequence; listed as Mus musculus)”, which “reduction of NER activity in CPD removal compared to Cul4a−/− MEFs” value ([1]; p21 knockdown (or p21 deletion) in Cul4a−/− MEFs, 10 J/m^2 UV, 24-hour repair assay) is on record?
A: The value was 8-11%.

Q: For “shCul4a: human short hairpin RNA targeting Cul4a, 5′-GAAGCTGGTCATCAAGAAC-3′ (SEQ ID NO: 14), in FUGW lentiviral vector (listed as Homo sapiens)”, which “association of XPC with chromatin” value (XPC in HCT116 cells; UV 10 J/m^2) is on record?
A: The value was “increased”.

Q: What about the “XPC ubiquitination on chromatin post-UV” value (XPC in HCT116 cells; UV 10 J/m^2, 0-2 hr post-UV) of the same molecule?
A: The value was “dramatic inhibition”.

Q: How did the BrdU incorporation (Cul4a−/− MEFs) turn out when “shCul4b: murine short hairpin RNA targeting Cul4b, 5′-GTAGTAACGAGAGAGAAGACT-3′ (SEQ ID NO: 9), in FUGW lentiviral vector (listed as Mus musculus)” was run?
A: The BrdU incorporation was “dramatic reduction”.

Q: What about the cell viability (Cul4a−/− MEFs) of the same molecule?
A: The cell viability was “loss of cell viability”.

Q: And the “reduction of mouse CUL4B protein” value (mouse CUL4B)?
A: The value was “over 93%”.

Q: And the “effect on GGR efficiency (CPD and 6-4PP removal)” value ([1]; Cul4b knockdown in Cul4a f/f MEFs, 10 J/m^2 UV-C)?
A: The value was “no discernable effect”.

Q: And the “effect on XPC accumulation” value ([2]; Cul4b knockdown)?
A: The value was “marginal effect”.

Q: And the “effect on p21 protein accumulation” value ([2]; Cul4b silencing by RNAi)?
A: The value was “little effect”.

Q: What about the “effect on DDB2 levels” value ([2]; lentiviral shRNA) of the same molecule?
A: The value was “only a marginal effect”.

B1: DN-CUL4: dominant negative CUL4 fragment (SEQ ID NO: 18) expressed from an adenovirus (protein, listed as Homo sapiens)
chain: MADEAPRKGSFSALVGRTNGLTKPAALAAAPAKPGGAGGSKKLVIKNFRDRPRLPDNYTQDTWRKLHEAVRAVQSSTSIRYNLEELYQAVENLCSHKVSPMLYKQLRQACEDHVQAQILPFREDSLDSVLFLKKINTCWQDHCRQMIMIRSIFLFLDRTYVLQNSTLPSIWDMGLELFRTHIISDKMVQSKTIDGILLLIERERSGEAVDRSLLRSLLGMLSDLQVYKDSFELKFLEETNCLYAAEGQRLMQEREVPEYLNHVSKRLEEEGDRVITYLDHSTQKPLIACVEKQLL
modifications: DN-CUL4A (M1-L295)
Q: Which “CPD repair compared to control adenovirus cells” value (HCT116 cells) does the source give for B1 here?
A: The value was “occurred earlier and was more complete”.
